Measurements: patent US20230295234A1, “ANTIMICROBIAL PEPTIDOMIMETICS” (SPEXIS AG, priority 2020, published 2023)
Read-outs that look alike come from different tables or passages of the source. Peptide text beside a SMILES is read from it.

Experiments:
[1] = tested on: Escherichia coli ATCC 25922
Procedure, shortened: (§1)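 Broth microdilution; cation-adjusted MHII; inoculum ~5×10^5 CFU/mL from 0.5 McFarland saline suspension; peptide two-fold serial dilutions; polysorbate 80 0.002% final; peptide stock 1 mg/mL in water.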

[2] = tested on: Escherichia coli MCR-1 Af 45; conditions: Mueller-Hinton broth II, 18-20 hours at 35° C.
Procedure, shortened: as §1

[3] = tested on: Klebsiella pneumoniae SSI3010
Procedure, shortened: as §1

[4] = tested on: human red blood cells (hRBC); experiment: Hemolysis of human red blood cells; format: cell-based
Procedure, shortened: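 PBS-washed human red blood cells (20% v/v) were incubated with peptide at 200 μg/mL for 1 h at 37 °C with shaking. Supernatant OD was read at 540 nm after 8-fold dilution. Hemolysis is expressed as percent of the water control.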

[5] = Mueller-Hinton broth II, 18-20 hours at 35° C.

Structure (SMILES): CC[C@H](C)[C@H](NC(=O)[C@@H](NC(=O)[C@@H]1C[C@@H](O)CN1C(=O)[C@@H](N)C(C)C)[C@@H](C)CC)C(=O)N[C@@H](Cc1ccc(O)cc1)C(=O)N[C@@H]1C(=O)N[C@@H](CC(N)=O)C(=O)N[C@@H](CCCNC(=N)N)C(=O)N[C@@H](CCN)C(=O)N[C@@H]([C@@H](C)O)C(=O)N[C@H](CCN)C(=O)N[C@@H](CCCCN)C(=O)N[C@H](C(=O)N[C@@H](CCN)C(=O)N[C@@H](CCCNC(=N)N)C(=O)N[C@@H](Cc2ccc(O)cc2)C(=O)O)CSSC1(C)C [Example 147] (HELM PEPTIDE1{V.[Hyp].I.I.Y.[Pen].N.R.[Dab].T.[NCC[C@@H](N[*:1])C(=O)[*:2]].K.C.[Dab].R.Y}$PEPTIDE1,PEPTIDE1,6:R3-13:R3$$$V2.0)
- Escherichia coli ATCC 25922 MIC [1, 5]: 0.125 µg/mL
- Escherichia coli MCR-1 Af 45 MIC [2]: 0.0625 µg/mL
- Klebsiella pneumoniae SSI3010 MIC [3, 5]: 0.25 µg/mL
- Hemolysis at 0.2 g/L ([4]; 20% hRBC, 1 h at 37° C.): 0%

Structure (SMILES): CC[C@H](C)[C@H](NC(=O)[C@@H]1C[C@@H](O)CN1C(=O)[C@@H](N)C(C)C)C(=O)N[C@H](C(=O)N[C@@H](Cc1ccc(O)cc1)C(=O)N[C@@H]1C(=O)N[C@@H](CC(N)=O)C(=O)N[C@@H](CCCNC(=N)N)C(=O)N[C@@H](CCN)C(=O)N[C@@H]([C@@H](C)O)C(=O)N[C@H](CCN)C(=O)N[C@@H](CCCCN)C(=O)N[C@H](C(=O)N[C@@H](CCN)C(=O)N[C@@H](CCCNC(=N)N)C(=O)N[C@@H](Cc2ccc(O)cc2)C(=O)O)CSSC1(C)C)[C@@H](C)O [Example 148] (HELM PEPTIDE1{V.[Hyp].I.T.Y.[Pen].N.R.[Dab].T.[NCC[C@@H](N[*:1])C(=O)[*:2]].K.C.[Dab].R.Y}$PEPTIDE1,PEPTIDE1,6:R3-13:R3$$$V2.0)
- Escherichia coli ATCC 25922 MIC ([1]; ATCC 25922): ≤0.125 µg/mL
- Escherichia coli MCR-1 Af 45 MIC [2]: 0.125 µg/mL
- Klebsiella pneumoniae SSI3010 MIC ([3]; SSI3010): 0.25 µg/mL
- Hemolysis at 0.2 g/L ([4]; red cells of human, 1 h): 0%

Structure (SMILES): CC[C@H](C)[C@H](NC(=O)[C@@H]1C[C@@H](O)CN1C(=O)[C@@H](N)C(C)C)C(=O)N[C@H](C(=O)N[C@@H](Cc1ccc(O)cc1)C(=O)N[C@@H]1C(=O)N[C@@H](CC(N)=O)C(=O)N[C@@H](CCCNC(=N)N)C(=O)N[C@@H](CCN)C(=O)N[C@@H]([C@@H](C)O)C(=O)N[C@H](CN)C(=O)N[C@@H](CCCCN)C(=O)N[C@H](C(=O)N[C@@H](CCN)C(=O)N[C@@H](CCCNC(=N)N)C(=O)N[C@@H](Cc2ccc(O)cc2)C(=O)O)CSSC1(C)C)[C@@H](C)O [Example 149] (HELM PEPTIDE1{V.[Hyp].I.T.Y.[Pen].N.R.[Dab].T.[NC[C@@H](N[*:1])C(=O)[*:2]].K.C.[Dab].R.Y}$PEPTIDE1,PEPTIDE1,6:R3-13:R3$$$V2.0)
- Escherichia coli ATCC 25922 MIC ([1]; ATCC 25922): 0.25 µg/mL
- Escherichia coli MCR-1 Af 45 MIC [2]: 0.25 µg/mL
- Klebsiella pneumoniae SSI3010 MIC ([3]; SSI3010): 0.5 µg/mL
- Hemolysis at 0.2 g/L ([4]; red cells of human, 1 h): 0%

Structure (SMILES): CC[C@H](C)[C@H](NC(=O)[C@@H]1C[C@@H](O)CN1C(=O)[C@@H](N)C(C)C)C(=O)N[C@H](C(=O)N[C@@H](Cc1ccc(O)cc1)C(=O)N[C@@H]1C(=O)N[C@@H](CC(N)=O)C(=O)N[C@@H](CCCNC(=N)N)C(=O)N[C@@H](CCN)C(=O)N[C@@H]([C@@H](C)O)C(=O)N[C@H](CCCN)C(=O)N[C@@H](CCCCN)C(=O)N[C@H](C(=O)N[C@@H](CCN)C(=O)N[C@@H](CCCNC(=N)N)C(=O)N[C@@H](Cc2ccc(O)cc2)C(=O)O)CSSC1(C)C)[C@@H](C)O [Example 150] (HELM PEPTIDE1{V.[Hyp].I.T.Y.[Pen].N.R.[Dab].T.[NCCC[C@@H](N[*:1])C(=O)[*:2]].K.C.[Dab].R.Y}$PEPTIDE1,PEPTIDE1,6:R3-13:R3$$$V2.0)
- Escherichia coli ATCC 25922 MIC ([1]; ATCC 25922): 0.25 µg/mL
- Escherichia coli MCR-1 Af 45 MIC [2]: 0.125 µg/mL
- Klebsiella pneumoniae SSI3010 MIC ([3]; SSI3010): 0.5 µg/mL
- Hemolysis at 0.2 g/L ([4]; red cells of human, 1 h): 0%

Structure (SMILES): CC[C@H](C)[C@H](NC(=O)[C@@H]1C[C@@H](O)CN1C(=O)[C@@H](N)C(C)C)C(=O)N[C@H](C(=O)N[C@@H](Cc1ccc(O)cc1)C(=O)N[C@@H]1C(=O)N[C@@H](CC(N)=O)C(=O)N[C@@H](CCCNC(=N)N)C(=O)N[C@@H](CCN)C(=O)N[C@@H]([C@@H](C)O)C(=O)N[C@H](CCCCN)C(=O)N[C@@H](CCCCN)C(=O)N[C@H](C(=O)N[C@@H](CCN)C(=O)N[C@@H](CCCNC(=N)N)C(=O)N[C@@H](Cc2ccc(O)cc2)C(=O)O)CSSC1(C)C)[C@@H](C)O [Example 151] (HELM PEPTIDE1{V.[Hyp].I.T.Y.[Pen].N.R.[Dab].T.[dK].K.C.[Dab].R.Y}$PEPTIDE1,PEPTIDE1,6:R3-13:R3$$$V2.0)
- Escherichia coli ATCC 25922 MIC ([1]; ATCC 25922): 0.25 µg/mL
- Escherichia coli MCR-1 Af 45 MIC [2]: 0.25 µg/mL
- Klebsiella pneumoniae SSI3010 MIC ([3]; SSI3010): 0.5 µg/mL
- Hemolysis at 0.2 g/L ([4]; red cells of human, 1 h): 0%

Structure (SMILES): CC[C@H](C)[C@H](NC(=O)[C@@H]1C[C@@H](O)CN1C(=O)[C@@H](N)C(C)C)C(=O)N[C@H](C(=O)N[C@@H](Cc1ccc(O)cc1)C(=O)N[C@@H]1C(=O)N[C@@H](CC(N)=O)C(=O)N[C@@H](CCCNC(=N)N)C(=O)N[C@@H](CCN)C(=O)N[C@@H]([C@@H](C)O)C(=O)N[C@H](CCCNC(=N)N)C(=O)N[C@@H](CCCCN)C(=O)N[C@H](C(=O)N[C@@H](CCN)C(=O)N[C@@H](CCCNC(=N)N)C(=O)N[C@@H](Cc2ccc(O)cc2)C(=O)O)CSSC1(C)C)[C@@H](C)O [Example 152] (HELM PEPTIDE1{V.[Hyp].I.T.Y.[Pen].N.R.[Dab].T.[dR].K.C.[Dab].R.Y}$PEPTIDE1,PEPTIDE1,6:R3-13:R3$$$V2.0)
- Escherichia coli ATCC 25922 MIC ([1]; ATCC 25922): 0.25 µg/mL
- Escherichia coli MCR-1 Af 45 MIC [2]: 0.25 µg/mL
- Klebsiella pneumoniae SSI3010 MIC ([3]; SSI3010): 0.25 µg/mL
- Hemolysis at 0.2 g/L ([4]; red cells of human, 1 h): 0%

Structure (SMILES): CC[C@H](C)[C@H](NC(=O)[C@@H]1C[C@@H](O)CN1C(=O)[C@@H](N)C(C)C)C(=O)N[C@@H](CCN)C(=O)N[C@@H](Cc1ccc(O)cc1)C(=O)N[C@@H]1C(=O)N[C@@H](CC(N)=O)C(=O)N[C@@H](CCCNC(=N)N)C(=O)N[C@@H](CCN)C(=O)N[C@@H]([C@@H](C)O)C(=O)N[C@H](CCN)C(=O)N[C@@H](CCCCN)C(=O)N[C@H](C(=O)N[C@@H](CCN)C(=O)N[C@H](C(=O)N[C@@H](Cc2ccc(O)cc2)C(=O)O)[C@@H](C)O)CSSC1(C)C [Example 153] (HELM PEPTIDE1{V.[Hyp].I.[Dab].Y.[Pen].N.R.[Dab].T.[NCC[C@@H](N[*:1])C(=O)[*:2]].K.C.[Dab].T.Y}$PEPTIDE1,PEPTIDE1,6:R3-13:R3$$$V2.0)
- Escherichia coli ATCC 25922 MIC ([1]; ATCC 25922): 0.125 µg/mL
- Escherichia coli MCR-1 Af 45 MIC [2]: 0.5 µg/mL
- Klebsiella pneumoniae SSI3010 MIC ([3]; SSI3010): 0.5 µg/mL
- Hemolysis at 0.2 g/L ([4]; red cells of human, 1 h): 0%

Structure (SMILES): CC[C@H](C)[C@H](NC(=O)[C@@H]1C[C@@H](O)CN1C(=O)[C@@H](N)C(C)C)C(=O)N[C@@H](CCCNC(=N)N)C(=O)N[C@@H](Cc1ccc(O)cc1)C(=O)N[C@@H]1C(=O)N[C@@H](CC(N)=O)C(=O)N[C@@H](CCCNC(=N)N)C(=O)N[C@@H](CCN)C(=O)N[C@@H]([C@@H](C)O)C(=O)N[C@H](CCN)C(=O)N[C@@H](CCCCN)C(=O)N[C@H](C(=O)N[C@@H](CCN)C(=O)N[C@H](C(=O)N[C@@H](Cc2ccc(O)cc2)C(=O)O)[C@@H](C)O)CSSC1(C)C [Example 154] (HELM PEPTIDE1{V.[Hyp].I.R.Y.[Pen].N.R.[Dab].T.[NCC[C@@H](N[*:1])C(=O)[*:2]].K.C.[Dab].T.Y}$PEPTIDE1,PEPTIDE1,6:R3-13:R3$$$V2.0)
- Escherichia coli ATCC 25922 MIC ([1]; ATCC 25922): 0.25 µg/mL
- Escherichia coli MCR-1 Af 45 MIC [2]: 0.25 µg/mL
- Klebsiella pneumoniae SSI3010 MIC ([3]; SSI3010): 0.5 µg/mL
- Hemolysis at 0.2 g/L ([4]; red cells of human, 1 h): 0%

Structure (SMILES): CC[C@H](C)[C@H](NC(=O)[C@@H]1C[C@@H](O)CN1C(=O)[C@@H](N)C(C)C)C(=O)N[C@@H](Cc1ccc(O)cc1)C(=O)N[C@@H](Cc1ccc(O)cc1)C(=O)N[C@@H]1C(=O)N[C@@H](CC(N)=O)C(=O)N[C@@H](CCCNC(=N)N)C(=O)N[C@@H](CCN)C(=O)N[C@@H]([C@@H](C)O)C(=O)N[C@H](CCN)C(=O)N[C@@H](CCCCN)C(=O)N[C@H](C(=O)N[C@@H](CCN)C(=O)N[C@@H](CCCNC(=N)N)C(=O)N[C@@H](Cc2ccc(O)cc2)C(=O)O)CSSC1(C)C [Example 155] (HELM PEPTIDE1{V.[Hyp].I.Y.Y.[Pen].N.R.[Dab].T.[NCC[C@@H](N[*:1])C(=O)[*:2]].K.C.[Dab].R.Y}$PEPTIDE1,PEPTIDE1,6:R3-13:R3$$$V2.0)
- Escherichia coli ATCC 25922 MIC ([1]; ATCC 25922): 0.125 µg/mL
- Escherichia coli MCR-1 Af 45 MIC [2]: 0.0625 µg/mL
- Klebsiella pneumoniae SSI3010 MIC ([3]; SSI3010): 0.25 µg/mL
- Hemolysis at 0.2 g/L ([4]; red cells of human, 1 h): 0%

Structure (SMILES): CC[C@H](C)[C@H](NC(=O)[C@@H]1C[C@@H](O)CN1C(=O)[C@@H](N)C(C)C)C(=O)N[C@@H](CC(C)C)C(=O)N[C@@H](Cc1ccc(O)cc1)C(=O)N[C@@H]1C(=O)N[C@@H](CC(N)=O)C(=O)N[C@@H](CCCNC(=N)N)C(=O)N[C@@H](CCN)C(=O)N[C@@H]([C@@H](C)O)C(=O)N[C@H](CCN)C(=O)N[C@@H](CCCCN)C(=O)N[C@H](C(=O)N[C@@H](CCN)C(=O)N[C@@H](CCCNC(=N)N)C(=O)N[C@@H](Cc2ccc(O)cc2)C(=O)O)CSSC1(C)C [Example 156] (HELM PEPTIDE1{V.[Hyp].I.L.Y.[Pen].N.R.[Dab].T.[NCC[C@@H](N[*:1])C(=O)[*:2]].K.C.[Dab].R.Y}$PEPTIDE1,PEPTIDE1,6:R3-13:R3$$$V2.0)
- Escherichia coli ATCC 25922 MIC ([1]; ATCC 25922): 0.25 µg/mL
- Escherichia coli MCR-1 Af 45 MIC [2]: 0.25 µg/mL
- Klebsiella pneumoniae SSI3010 MIC ([3]; SSI3010): 0.5 µg/mL
- Hemolysis at 0.2 g/L ([4]; red cells of human, 1 h): 0%
